Test [1] concerns thalamic relay neurons. As to the kind of experiment: Tonic current in thalamic relay neurons, slice. It counts as cell-based, mouse. Conditions: pre-pubertal; n=6. How it is done:
Hippocampal slice: Slice preparation^20: Animals were rapidly decapitated, and the brains removed and cooled using an ice cold solution of artificial cerebrospinal fluid (aCSF) containing (in mM): NaCl 124, KCl 5, CaCl2 2, KH2PO4 1.25, MgSO4 2, NaHCO3 26, and glucose 10, saturated with 95% O2, 5% CO2 and buffered to a pH of 7.4. Following sectioning at 400 μm on a Leica oscillating microtome, slices were incubated for one hour in oxygenated aCSF. Slice recording: Pyramidal cells in CA1 hippocampal slice^20 or thalamic relay neurons in the ventral tier were visualized using a Leica DIC-infrared upright microscope, and recorded at −50 or −60 mV using whole cell patch clamp procedures at room temperature (20-22° C., Axopatch 200B amplifier, Axon Instruments, 20 kHz sampling frequency, 2 kHz 4-pole Bessel filter) and pClamp 9.2 software. Patch pipets were fabricated to yield open tip resistances of 2-4 MΩ. Internal solution in mM for ECl=−70 (or ECl=−30): K-gluconate 141.5 (O), KCl 0 (52.3), CsCl 8.5 (145), HEPES 5, EGTA 5, CaCl2-H2O 0.5, QX-314 5 (Calbiochem), Mg-ATP 2, Li-GTP 0.5, pH 7.2, 290 mOsm. […] Electrode capacitance and series resistance were monitored and compensated; access resistance was monitored throughout the experiment, and cells discarded if the access resistance >10 MΩ. […]

Test [2] deals with CA1 hippocampal pyramidal cells. As to the kind of experiment: Tonic GABAergic current, whole cell patch clamp, hippocampal slice. The class given is cell-based, mouse. How it is done:
In whole cell recordings of the tonic current, the bath contained 2 mM kynurenic acid and 5-10 mM TEA to pharmacologically isolate the GABAergic current, and in some cases, 200 nM gabazine (6-imino-3-(4-methyoxyphenyl)-1 (6H)-pyridazinebutanoic acid hydrobromide) to selectively block the synaptic GABAergic currents^22. […] In some cases, 50 μM L-655,708 was added to the bath solution to block α5-containing GABAA receptors^23.
Tonic current was recorded as the difference current produced by 120 μM gabazine, which blocks all GABAA receptor, before and after 30 nM THP^24. Current was also recorded in response to 2 s 10 mV steps in the holding potential, and current-voltage curves generated to the steady-state current. Because fast-inactivating conductances would not be excluded in a voltage ramp, stable steady-state current responses were used instead to construct the current-voltage (IV) curves. Input resistance (Rm) was calculated from the current response to voltage steps from −60 to −40 mV using Ohm's Law. The reversal potential was determined by the […] of the IV curve (−90 to −10 mV). The gabazine-sensitive slope conductance was assessed as the slope of the linear portion of outward current plot recorded before and after THP after subtraction of the gabazine-generated current (in the presence of L-655,708 to block α5-GABAA receptors). Only data with a stable baseline and pipet access resistance <10 MΩ were included in the analysis.

For test [3], the target named is T1, α1β2γ2 receptors (Rattus norvegicus, UniProt P62813+P63138).
T1 construct: expressed in transfected cells; host or cells: HEK-293
T1 sequence (P62813 28-455): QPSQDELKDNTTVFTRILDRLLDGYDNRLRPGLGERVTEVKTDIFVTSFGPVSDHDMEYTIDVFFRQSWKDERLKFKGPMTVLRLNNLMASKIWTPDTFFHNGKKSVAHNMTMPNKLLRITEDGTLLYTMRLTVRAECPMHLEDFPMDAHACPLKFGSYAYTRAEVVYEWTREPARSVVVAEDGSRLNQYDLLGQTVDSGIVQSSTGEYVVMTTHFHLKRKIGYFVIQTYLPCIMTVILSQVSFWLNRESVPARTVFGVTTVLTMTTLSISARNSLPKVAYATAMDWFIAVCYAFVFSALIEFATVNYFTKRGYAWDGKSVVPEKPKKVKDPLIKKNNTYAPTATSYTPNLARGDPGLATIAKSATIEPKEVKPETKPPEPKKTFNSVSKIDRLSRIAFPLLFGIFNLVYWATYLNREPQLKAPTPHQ
T1 sequence (P63138 25-474 limits assumed): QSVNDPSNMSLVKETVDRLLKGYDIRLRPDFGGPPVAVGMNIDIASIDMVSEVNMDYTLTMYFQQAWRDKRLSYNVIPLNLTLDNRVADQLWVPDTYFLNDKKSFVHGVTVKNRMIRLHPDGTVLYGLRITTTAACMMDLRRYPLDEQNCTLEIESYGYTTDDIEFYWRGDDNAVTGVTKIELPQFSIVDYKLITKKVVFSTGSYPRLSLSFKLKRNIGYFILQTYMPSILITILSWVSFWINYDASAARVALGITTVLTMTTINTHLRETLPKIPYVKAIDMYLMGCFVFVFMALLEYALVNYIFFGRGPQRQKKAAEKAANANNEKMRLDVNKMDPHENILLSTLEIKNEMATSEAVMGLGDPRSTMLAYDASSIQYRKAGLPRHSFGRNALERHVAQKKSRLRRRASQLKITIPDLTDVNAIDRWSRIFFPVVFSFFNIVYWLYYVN
T1 sequence (P18508 39-466 partner): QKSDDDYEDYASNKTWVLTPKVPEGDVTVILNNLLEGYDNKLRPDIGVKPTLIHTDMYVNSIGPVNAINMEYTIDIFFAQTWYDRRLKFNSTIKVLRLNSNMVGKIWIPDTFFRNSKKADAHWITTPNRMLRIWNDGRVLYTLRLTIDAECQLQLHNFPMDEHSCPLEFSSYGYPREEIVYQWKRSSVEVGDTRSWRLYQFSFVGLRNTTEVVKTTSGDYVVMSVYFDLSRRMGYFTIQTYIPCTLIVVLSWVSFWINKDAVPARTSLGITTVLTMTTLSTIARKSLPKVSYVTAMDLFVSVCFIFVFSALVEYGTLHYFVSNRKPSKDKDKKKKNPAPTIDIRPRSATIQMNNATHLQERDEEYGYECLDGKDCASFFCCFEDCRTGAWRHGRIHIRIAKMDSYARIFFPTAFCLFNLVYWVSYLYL
As to the kind of experiment: Whole cell patch clamp of GABA-gated current, recombinant receptors in HEK-293 cells. It counts as cell-based. Conditions: 30 nM THP. From the text: Recombinant receptors: Transfection—Plasmids obtained from S. Vicini (rat α1, α5, β2, β3 and γ2), P. Whiting (human α4 and δ) and N. L. Harrison (mouse α4) were propagated in E coli DH5α and prepared using Qiagen Maxi- or Midi-prep kits. (Rat, mouse and human α1, β2, β3 and γ2 subunits are identical or nearly identical.) All receptors were transfected at a 1:1:1 ratio, except α1β2γ2 (1:1:5)^12, α4βδ (5:1:5)^13 and α4β2γ2 (5:1:1). HEK-293 cells were maintained in medium (DMEM:Ham's F-12 1:1) supplemented with 10% fetal calf serum at 37° C. in a humid 5% CO2 atmosphere.
The pipet solution contained (in mM): N-methyl-D-glucamine chloride 120, Cs4BAPTA 5 (Calbiochem), Mg-ATP 5, and an ATP regeneration system (20 mM Tris phosphocreatine and creatine kinase). Internal [Cl^−] or the holding potential were varied, using gluconate as the anion, to alter the direction of Cl^− flow, corrected for the junction potential.
HEK-293 cells were maintained in medium (DMEM:Ham's F-12 1:1) supplemented with 10% fetal calf serum at 37° C. in a humid 5% CO2 atmosphere.
(Patch clamp records ionic current or voltage across a cell membrane.)

Turning to `CC(=O)[C@H]1CC[C@H]2[C@@H]3CC[C@H]4C[C@H](O)CC[C@]4(C)[C@H]3CC[C@]12C` [THP, 3α-OH-5α[β]-pregnan-20-one], the “reduction of tonic current” value in test [1] is recorded as 57±12%. Also, the “reduction of outward tonic current” value in test [2] (30 nM THP, pubertal mice, low internal Cl−) was found to be 48±6%. Moreover, the “effect on outward tonic current” value in test [2] (before puberty) and in test [2] (δ−/− mouse after puberty) was “increased the outward tonic current” each time. For the same compound, the “effect on tonic GABAergic current, inward” value in test [2] (pubertal, cell loaded with Cl− to produce inward current) is listed as “increased the tonic GABAergic current”. Besides, in test [3], the “effect on outward current” value was “either increased or had no effect”.

These data come from patent publication US20090269795A1, “Mutant alpha4betadelta GABAA receptor and methods of treating anxiety or irritability” (priority 2007, published 2009).
